#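 GI50: concentration for 50% inhibition of growth. TGI: concentration producing complete growth inhibition.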
# Tests used:
# Test in all cases: NCI tumour cell line growth inhibition, 384-well format
# 786-0 renal = tested on: 786-0 renal
# A498 renal = tested on: A498 renal
# A549 NSCLC = tested on: A549 NSCLC
# ACHN renal = tested on: ACHN renal
# BT-549 breast = tested on: BT-549 breast
# CAKI-1 renal = tested on: CAKI-1 renal
# CCRF-CEM leukemia = tested on: CCRF-CEM leukemia
# COLO 205 colon = tested on: COLO 205 colon
# DU-145 prostate = tested on: DU-145 prostate
# EKVX NSCLC = tested on: EKVX NSCLC
# HCC-2998 colon = tested on: HCC-2998 colon
# HCT-116 colon = tested on: HCT-116 colon
# HCT-15 colon = tested on: HCT-15 colon
# HL-60(TB) leukemia = tested on: HL-60(TB) leukemia
# HOP-62 NSCLC = tested on: HOP-62 NSCLC
# HOP-92 NSCLC = tested on: HOP-92 NSCLC
# HS 578T breast = tested on: HS 578T breast
# HT29 colon = tested on: HT29 colon
# IGROV1 ovarian = tested on: IGROV1 ovarian
# K-562 leukemia = tested on: K-562 leukemia
# KM12 colon = tested on: KM12 colon
# LOX IMVI melanoma = tested on: LOX IMVI melanoma
# M14 melanoma = tested on: M14 melanoma
# MALME-3M melanoma = tested on: MALME-3M melanoma
# MCF7 breast = tested on: MCF7 breast
# MDA-MB-231 breast = tested on: MDA-MB-231 breast
# MDA-MB-435 melanoma = tested on: MDA-MB-435 melanoma
# MDA-MB-468 breast = tested on: MDA-MB-468 breast
# MOLT-4 leukemia = tested on: MOLT-4 leukemia
# NCI-H226 lung = tested on: NCI-H226 lung
# NCI-H23 lung = tested on: NCI-H23 lung
# NCI-H322M lung = tested on: NCI-H322M lung
# NCI-H460 NSCLC = tested on: NCI-H460 NSCLC
# NCI-H522 lung = tested on: NCI-H522 lung
# NCI/ADR-RES ovarian = tested on: NCI/ADR-RES ovarian
# OVCAR-3 ovarian = tested on: OVCAR-3 ovarian
# OVCAR-4 ovarian = tested on: OVCAR-4 ovarian
# OVCAR-5 ovarian = tested on: OVCAR-5 ovarian
# OVCAR-8 ovarian = tested on: OVCAR-8 ovarian
# PC-3 prostate = tested on: PC-3 prostate
# RPMI-8226 leukemia = tested on: RPMI-8226 leukemia
# RXF 393 renal = tested on: RXF 393 renal
# SF-268 CNS = tested on: SF-268 CNS
# SF-295 CNS = tested on: SF-295 CNS
# SF-539 CNS = tested on: SF-539 CNS
# SK-MEL-28 melanoma = tested on: SK-MEL-28 melanoma
# SK-MEL-5 melanoma = tested on: SK-MEL-5 melanoma
# SK-OV-3 ovarian = tested on: SK-OV-3 ovarian
# SN12C renal = tested on: SN12C renal
# SNB-19 CNS = tested on: SNB-19 CNS
# SNB-75 CNS = tested on: SNB-75 CNS
# SW-620 colon = tested on: SW-620 colon
# T-47D breast = tested on: T-47D breast
# TK-10 renal = tested on: TK-10 renal
# U251 glioblastoma = tested on: U251 glioblastoma
# UACC-257 melanoma = tested on: UACC-257 melanoma
# UACC-62 melanoma = tested on: UACC-62 melanoma
# UO-31 renal = tested on: UO-31 renal
smiles,measurement,setting,value
CC(C)(F)C[C@H](N[C@@H](c1ccc(-c2ccc(S(C)(=O)=O)cc2)cc1)C(F)(F)F)C(=O)NC1(C#N)CC1,GI50,786-0 renal,21.9 µM
same,TGI,786-0 renal,53.5 µM
same,GI50,A498 renal,21.3 µM
same,TGI,A498 renal,46.7 µM
same,GI50,A549 NSCLC,34.9 µM
same,TGI,A549 NSCLC,> 100 µM
same,GI50,ACHN renal,> 100 µM
same,TGI,ACHN renal,> 100 µM
same,GI50,BT-549 breast,39.7 µM
same,TGI,BT-549 breast,> 100 µM
same,GI50,CAKI-1 renal,30.5 µM
same,TGI,CAKI-1 renal,> 100 µM
same,GI50,CCRF-CEM leukemia,> 100 µM
same,TGI,CCRF-CEM leukemia,> 100 µM
same,GI50,COLO 205 colon,> 100 µM
same,TGI,COLO 205 colon,> 100 µM
same,GI50,DU-145 prostate,46.4 µM
same,TGI,DU-145 prostate,> 100 µM
same,GI50,EKVX NSCLC,39.2 µM
same,TGI,EKVX NSCLC,> 100 µM
same,GI50,HCC-2998 colon,> 100 µM
same,TGI,HCC-2998 colon,> 100 µM
same,GI50,HCT-116 colon,> 100 µM
same,TGI,HCT-116 colon,> 100 µM
same,GI50,HCT-15 colon,> 100 µM
same,TGI,HCT-15 colon,> 100 µM
same,GI50,HL-60(TB) leukemia,> 100 µM
same,TGI,HL-60(TB) leukemia,> 100 µM
same,GI50,HOP-62 NSCLC,22.8 µM
same,TGI,HOP-62 NSCLC,63 µM
same,GI50,HOP-92 NSCLC,11.2 µM
same,TGI,HOP-92 NSCLC,28.9 µM
same,GI50,HS 578T breast,21.2 µM
same,TGI,HS 578T breast,45.3 µM
same,GI50,HT29 colon,> 100 µM
same,TGI,HT29 colon,> 100 µM
same,GI50,IGROV1 ovarian,> 100 µM
same,TGI,IGROV1 ovarian,> 100 µM
same,GI50,K-562 leukemia,> 100 µM
same,TGI,K-562 leukemia,> 100 µM
same,GI50,KM12 colon,43.6 µM
same,TGI,KM12 colon,> 100 µM
same,GI50,LOX IMVI melanoma,59.3 µM
same,TGI,LOX IMVI melanoma,> 100 µM
same,GI50,M14 melanoma,71.5 µM
same,TGI,M14 melanoma,> 100 µM
same,GI50,MALME-3M melanoma,33.7 µM
same,TGI,MALME-3M melanoma,86.9 µM
same,GI50,MCF7 breast,27.3 µM
same,TGI,MCF7 breast,91.1 µM
same,GI50,MDA-MB-231 breast,39.6 µM
same,TGI,MDA-MB-231 breast,> 100 µM
same,GI50,MDA-MB-435 melanoma,96.2 µM
same,TGI,MDA-MB-435 melanoma,> 100 µM
same,GI50,MDA-MB-468 breast,39.4 µM
same,TGI,MDA-MB-468 breast,> 100 µM
same,GI50,MOLT-4 leukemia,41.1 µM
same,TGI,MOLT-4 leukemia,> 100 µM
same,GI50,NCI-H226 lung,23.5 µM
same,TGI,NCI-H226 lung,54.6 µM
same,GI50,NCI-H23 lung,30.9 µM
same,TGI,NCI-H23 lung,83 µM
same,GI50,NCI-H322M lung,49.8 µM
same,TGI,NCI-H322M lung,> 100 µM
same,GI50,NCI-H460 NSCLC,22.4 µM
same,TGI,NCI-H460 NSCLC,53.8 µM
same,GI50,NCI-H522 lung,21.4 µM
same,TGI,NCI-H522 lung,40.2 µM
same,GI50,NCI/ADR-RES ovarian,88.1 µM
same,TGI,NCI/ADR-RES ovarian,> 100 µM
same,GI50,OVCAR-3 ovarian,31.1 µM
same,TGI,OVCAR-3 ovarian,76.7 µM
same,GI50,OVCAR-4 ovarian,19.8 µM
same,TGI,OVCAR-4 ovarian,38 µM
same,GI50,OVCAR-5 ovarian,> 100 µM
same,TGI,OVCAR-5 ovarian,> 100 µM
same,GI50,OVCAR-8 ovarian,20.7 µM
same,TGI,OVCAR-8 ovarian,46.1 µM
same,GI50,PC-3 prostate,41.3 µM
same,TGI,PC-3 prostate,> 100 µM
same,GI50,RPMI-8226 leukemia,55.9 µM
same,TGI,RPMI-8226 leukemia,> 100 µM
same,GI50,RXF 393 renal,18.3 µM
same,TGI,RXF 393 renal,35.3 µM
same,GI50,SF-268 CNS,22.1 µM
same,TGI,SF-268 CNS,41 µM
same,GI50,SF-295 CNS,22.9 µM
same,TGI,SF-295 CNS,63.4 µM
same,GI50,SF-539 CNS,23.1 µM
same,TGI,SF-539 CNS,44.1 µM
same,GI50,SK-MEL-28 melanoma,40.9 µM
same,TGI,SK-MEL-28 melanoma,> 100 µM
same,GI50,SK-MEL-5 melanoma,23 µM
same,TGI,SK-MEL-5 melanoma,55.8 µM
same,GI50,SK-OV-3 ovarian,27.3 µM
same,TGI,SK-OV-3 ovarian,69.6 µM
same,GI50,SN12C renal,34.9 µM
same,TGI,SN12C renal,> 100 µM
same,GI50,SNB-19 CNS,35.7 µM
same,TGI,SNB-19 CNS,92.4 µM
same,GI50,SNB-75 CNS,20.5 µM
same,TGI,SNB-75 CNS,37.3 µM
same,GI50,SW-620 colon,> 100 µM
same,TGI,SW-620 colon,> 100 µM
same,GI50,T-47D breast,36.6 µM
same,TGI,T-47D breast,> 100 µM
same,GI50,TK-10 renal,33.1 µM
same,TGI,TK-10 renal,97.9 µM
same,GI50,U251 glioblastoma,24.7 µM
same,TGI,U251 glioblastoma,55.5 µM
same,GI50,UACC-257 melanoma,26.7 µM
same,TGI,UACC-257 melanoma,55.4 µM
same,GI50,UACC-62 melanoma,42.1 µM
same,TGI,UACC-62 melanoma,> 100 µM
same,GI50,UO-31 renal,> 100 µM
same,TGI,UO-31 renal,> 100 µM
